“Also recorded” adds a separate entry of the source. Read-outs that look alike come from different tables or passages of the source. Where a SMILES comes first, the peptide text is derived from it. [ ]: non-standard residue; d: D form. The star is where a group is joined. Dolaproine = CO[C@@H]([C@@H]1CCCN1)[C@@H](C)C(=O)O; Dil = CC[C@H](C)[C@H](NC)[C@@H](CC(=O)O)OC; X1 = C[C@@H](N*)[C@@H](O)c1ccccc1; NMeV = CN[C@H](C(=O)O)C(C)C
How the values were obtained:
[1] = Intravenous pharmacokinetics in rat; type: in vivo; conditions: for AUC(0-inf) / half-life / clearance / Vd: rat, in vivo, iv; for clearance: read-out: CLp; for Vd: read-out: Vss; for Plasma concentration of released payload: rat plasma after 0.5 mg/kg i.v. of the parent SMDC (4, 5, 6), LLOQ < 0.0005 µM
Method: Pharmacokinetic properties of SMDCs and their respective payloads were characterized in rats. Briefly, male Wistar rats (n = 3) were given a 0.5 mg/kg dose of SMDC formulated in plasma/DMSO (99:1) intravenously (i.v.) via tail vein. Blood was collected at pre-dose, 2, 5, 15, 30, 45, 60 min, 2, 4, 7, 24 h post-dose and then processed to plasma. Plasma was frozen at < −20°C until sample analysis. Plasma samples were analyzed for concentrations of SMDCs and their respective released payloads by LC-MS/MS.
Pharmacokinetics of SMDCs and their respective payloads from in vivo studies were determined using mean concentration-time profiles. All pharmacokinetic parameters were calculated by non-compartmental methods as previously described ([Perrier and Gibaldi, 1982]).

Stability in rat plasma = type: in vitro ADME; conditions: 37 °C
Method: The SMDC compounds 2, 3, 4, 5 and 6 (1 mg) were dissolved in acetonitrile/DMSO (1:1, 0.5 mL). While vortexing, 20 µL of this solution was added to 1 mL rat plasma at 37 °C. The incubation was stopped at respective time intervals by adding acetonitrile/buffer pH 3 (80:20) and the test compounds and formation of degradation products were analyzed by LC and LC/MS.

[2] = biological target: T1, human neutrophil elastase (Homo sapiens, UniProt P08246); test: Human neutrophil elastase cleavability assay; type: biochemical; conditions: 5 µM SMDC, 20, 40, 60 nM NE, 1 h, 37°C
T1 sequence (P08246 30-267): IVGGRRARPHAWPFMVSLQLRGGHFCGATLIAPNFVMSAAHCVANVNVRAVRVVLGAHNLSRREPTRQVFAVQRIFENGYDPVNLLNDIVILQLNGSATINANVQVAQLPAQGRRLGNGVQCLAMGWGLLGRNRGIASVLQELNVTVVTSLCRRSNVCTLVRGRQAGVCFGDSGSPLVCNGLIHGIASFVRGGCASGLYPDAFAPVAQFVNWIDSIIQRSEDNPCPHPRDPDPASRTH
Method: For the NE cleavability assay, the SMDC test compound was added to buffer (150 mM NaCl, 10 mM CaCl2, 0.05% BSA) to a final concentration of 5 µM (0.5% DMSO). The reaction was started by adding different concentrations of human NE (0, 20, 40, 60 nM) to the reaction vials. After incubation for 1 h at 37°C, the enzymatic reaction was stopped by precipitation in 50% ACN. Subsequently, the samples were subjected to HPLC-MS analysis to determine the concentration of test compound and of its metabolite.

[3] = Stability in human plasma; type: in vitro ADME; conditions: 37 °C
[4] = Hydrolytic stability in PBS buffer at pH 7.4; type: physicochemical; conditions: PBS pH 7.4, 37 °C, 24 h
Method: For hydrolytic stability measurement, compounds 2, 3, 4, 5 and 6 (0.15 mg) were dissolved in acetonitrile/DMSO (4:1, 0.5 mL) and 1 mL of PBS buffer at pH 7.4 was then added. The sample solution was analyzed by HPLC to determine the amount of the test compound and the formation of degradation products over a period of 24 h at 37 °C.

MX-1 TNBC xenograft = test: In vivo efficacy in MX-1 TNBC xenograft model; conditions: 20 mg/kg i.v.
Method: For in vivo efficacy studies, immunocompromised mice were inoculated subcutaneously with 1x10^6 MX-1 TNBC cells in 50% Matrigel/50% Media on day 0. Treatment was started at a mean tumor volume of 75 mm^3 in the MX-1 model (n = 12/group: Compound 2, 20 mg/kg i. v. in a 2 days on/5 days off and in a once weekly (QW) schedule. VIP236, 20 mg/kg i. v. QW). Tumor and body weight were measured at least twice weekly.

[5] = tested on: NCI-H292 (human NSCLC) cells; test: In vitro cytotoxicity, MTT assay, in absence or presence of neutrophil elastase; type: cell-based; conditions: Homo sapiens, NCI-H292, 72 h exposure
Method: (§1) 786-O (human RCC), HT-29 (human CRC), NCI-H292 (human NSCLC), NCI-H69 (human SCLC), MX-1 (human TNBC), and SUM149PT (human IBC) cells were acquired from ATCC and cultured according to the provider’s instructions.
(§2) The in vitro cytotoxicity of the SMDCs in comparison to the respective payloads was tested in a panel of cancer cell lines after a 72 h continuous exposure in presence or absence of 20 nM neutrophil elastase using MTT assays (ATCC). IC50 values were determined as the concentration of compound required for 50% inhibition of cell viability.

786-O (human RCC) cells = test: as above; type: cell-based; conditions: Homo sapiens, 786-0, 72 h exposure
Method: as §1, §2

[6] = tested on: SUM149PT (human IBC) cells; test: as above; type: cell-based; conditions: Homo sapiens, SUM149PT, 72 h exposure
Method: as §1, §2

HT-29 (human CRC) cells = test: as above; type: cell-based; conditions: Homo sapiens, HT-29, 72 h exposure
Method: as §1, §2

[7] = Caco-2 cell permeability flux assay; type: in vitro ADME; conditions: human, 37 °C, mean of at least two assays
Method: The cell permeability of the payloads released by the SMDCs 5 and 6, namely, compounds 10 and 11 were investigated with an in vitro flux assay using Caco-2 cells ([Troutman and Thakker, 2003]). The compounds were dissolved in HEPES buffer and applied (in triplicates) to the cells either on the apical (A) or basolateral (B) side of the Caco-2 monolayer at a final concentration of 2 μM. Before and after incubation for 2 h at 37 °C, samples were taken from both compartments and analyzed by LC-MS/MS. The apparent permeability coefficient (Papp) was calculated for both the apical to basolateral (A → B) and the basolateral to apical (B → A) direction as described by Schwab et al. ([Schwab et al., 2003]).

[8] = male Wistar rats, 0.5 mg/kg SMDC i.v., plasma
[9] = with 20 nM neutrophil elastase, read-out: IC50 NCI-H292 + neutrophil elastase
[10] = without neutrophil elastase, read-out: IC50 NCI-H292
[11] = with 20 nM neutrophil elastase, read-out: IC50 786–0 + neutrophil elastase
[12] = without neutrophil elastase, read-out: IC50 786–0
[13] = with 20 nM neutrophil elastase, read-out: IC50 SUM149 PT + neutrophil elastase
[14] = without neutrophil elastase, read-out: IC50 SUM149PT
[15] = with 20 nM neutrophil elastase, read-out: IC50 HT29 + neutrophil elastase
[16] = without neutrophil elastase, read-out: IC50 HT29

CCCNC(=O)Nc1cccc(S(=O)(=O)Nc2cccc([C@@H](CC(=O)O)NC(=O)Nc3ccc(NC(=O)NCCN(C)CCN(C)CCN(C)CC(=O)N[C@@H](CC(N)=O)C(=O)N4CCC[C@H]4C(=O)N[C@H](C(=O)O[C@]4(CC)C(=O)OCc5c4cc4n(c5=O)Cc5c-4nc4ccccc4c5CC)C(C)C)cc3)c2)c1 [Compound 2]
payload/parent AUC ratio ([1]; male Wistar rats, 0.5 mg/kg SMDC i.v., plasma, molar basis): 0.0105 | AUC(0-inf) [1, 8]: 2.52 ± 0.61 µM·h | half-life [1, 8]: 8.31 ± 5.49 h | clearance [1, 8]: 2.33 ± 0.44 mL/min/kg | Vd [1, 8]: 0.627 ± 0.344 L/kg | Stability in rat plasma (Stability in rat plasma): highly stable | Cleavage by human NE [2]: essentially completely cleaved | Stability in human plasma [3]: Very small fractions of a degradation product; also recorded: highly stable | Stability in buffer pH 7.4 [4]: Very small fractions of a degradation product; also recorded: highly stable | Tumor growth MX-1 (MX-1 TNBC xenograft; 2 days on/5 days off): significant tumor regression; also recorded: complete tumor regression | Body weight loss (MX-1 TNBC xenograft; 2 days on/5 days off, MX-1 model): no significant body weight loss | Tumor growth MX-1 (MX-1 TNBC xenograft; once weekly): tumor stasis | Body weight changes (MX-1 TNBC xenograft; MX-1 model): minor

CCCNC(=O)Nc1cccc(S(=O)(=O)Nc2cccc([C@@H](CC(=O)O)NC(=O)Nc3ccc(NC(=O)NCCOCCOCCOCCC(=O)N[C@@H](CC(N)=O)C(=O)N4CCC[C@H]4C(=O)N[C@H](C(=O)NCCCN(C(=O)CO)[C@@H](c4cc(-c5cc(F)ccc5F)cn4Cc4ccccc4)C(C)(C)C)C(C)C)cc3)c2)c1 [Compound 5]
AUC(0-inf) [1, 8]: 1.09 ± 0.49 µM·h | half-life [1, 8]: 4.88 ± 4.37 h | clearance [1, 8]: 5.5 ± 2.35 mL/min/kg | Vd [1, 8]: 0.6 ± 0.515 L/kg | Stability in rat plasma (Stability in rat plasma): highly stable | Cleavage by human NE [2]: very slow | Stability in human plasma [3]: highly stable | Stability in buffer pH 7.4 [4]: highly stable

CCc1c2c(nc3ccccc13)-c1cc3c(c(=O)n1C2)COC(=O)[C@]3(O)CC [Compound 7, 7-ethyl camptothecin, reference compound]
IC50 [5, 9]: 4.6 nM | IC50 [5, 10]: 3.8 nM | IC50 (786-O (human RCC) cells; [11]): 3.2 nM | IC50 (786-O (human RCC) cells; [12]): 3.7 nM | IC50 [6, 13]: 4.2 nM | IC50 [6, 14]: 3.8 nM | IC50 (HT-29 (human CRC) cells; [15]): 19 nM | IC50 (HT-29 (human CRC) cells; [16]): 22 nM

CC[C@H](C)[C@@H]([C@@H](CC(=O)N1CCC[C@H]1[C@H](OC)[C@@H](C)C(=O)N[C@H](C)[C@@H](O)c1ccccc1)OC)N(C)C(=O)[C@@H](NC(=O)[C@@H](NC)C(C)C)C(C)C [Compound 9, N-methyl-L-valyl-N-[(3R,4S,5S)-1-{(2S)-2-[(1R,2R)-3-{[(1S,2R)-1-hydroxy-1-phenylpropan-2-yl]amino}-1-methoxy-2-methyl-3-oxopropyl]pyrrolidin-1-yl}-3-methoxy-5-methyl-1-oxoheptan-4-yl]-N-methyl-L-valinamide, reference compound] (H-[NMeV]V[Dil][Dolaproine]-X1)
Plasma concentration of released payload [1]: largely below the lower limit of quantitation | IC50 [5, 9]: 0.36 nM | IC50 [5, 10]: 0.4 nM | IC50 (786-O (human RCC) cells; [11]): 4.9 nM | IC50 (786-O (human RCC) cells; [12]): 5.9 nM | IC50 [6, 13]: 0.14 nM | IC50 [6, 14]: 0.18 nM | IC50 (HT-29 (human CRC) cells; [15]): 0.55 nM | IC50 (HT-29 (human CRC) cells; [16]): 0.58 nM

CC(C)(C)[C@H](c1cc(-c2cc(F)ccc2F)cn1Cc1ccccc1)N(CCCN)C(=O)CO [Compound 10, N-(3-aminopropyl)-N-{(1R)-1-[1-benzyl-4-(2,5-difluorophenyl)-1H-pyrrol-2-yl]-2,2-dimethylpropyl}-2-hydroxyacetamide]
Plasma concentration of released payload [1]: largely below the lower limit of quantitation | Papp A→B at 2 h, 2 μM [7]: 0.38 ×10⁻⁶ cm/s | Papp B→A at 2 h, 2 μM [7]: 18 ×10⁻⁶ cm/s | efflux ratio at 2 h, 2 μM [7]: 129 | IC50 [5, 9]: 0.27 nM | IC50 [5, 10]: 0.46 nM | IC50 (786-O (human RCC) cells; [11]): 2.5 nM | IC50 (786-O (human RCC) cells; [12]): 2.5 nM | IC50 [6, 13]: 0.17 nM | IC50 [6, 14]: 0.33 nM | IC50 (HT-29 (human CRC) cells; [15]): 0.41 nM | IC50 (HT-29 (human CRC) cells; [16]): 0.41 nM

CNC(=O)[C@@H](N)CCN(C(=O)CO)[C@@H](c1cc(-c2cc(F)ccc2F)cn1Cc1ccccc1)C(C)(C)C [Compound 11, (2S)-2-amino-4-[{(1R)-1-[1-benzyl-4-(2,5-difluorophenyl)-1H-pyrrol-2-yl]-2,2-dimethylpropyl}(glycoloyl)amino]-N-methylbutanamide]
Plasma concentration of released payload [1]: largely below the lower limit of quantitation | Papp A→B at 2 h, 2 μM [7]: 3.48 ×10⁻⁶ cm/s | Papp B→A at 2 h, 2 μM [7]: 30.3 ×10⁻⁶ cm/s | efflux ratio at 2 h, 2 μM [7]: 8.7 | IC50 [5, 9]: 0.97 nM | IC50 [5, 10]: 1.8 nM | IC50 (786-O (human RCC) cells; [11]): 6 nM | IC50 (786-O (human RCC) cells; [12]): 6 nM | IC50 [6, 13]: 0.53 nM | IC50 [6, 14]: 0.31 nM | IC50 (HT-29 (human CRC) cells; [15]): 1.4 nM | IC50 (HT-29 (human CRC) cells; [16]): 1.2 nM
